Assay results reported in the supplement of paper PMC10307832.

Assays:
Assay in all cases: relative viability (nuclei count vs DMSO), 5 days (fraction); higher = more cells survive
Dovitinib + Foretinib = compound: CN1CCN(c2ccc3nc(-c4c(N)c5c(F)cccc5[nH]c4=O)[nH]c3c2)CC1 [Dovitinib] + COc1cc2c(Oc3ccc(NC(=O)C4(C(=O)Nc5ccc(F)cc5)CC4)cc3F)ccnc2cc1OCCCN1CCOCC1 [Foretinib] (partner 0.25 µM)
In short: (§1)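 Five library-drug doses in √10 steps were combined with a fixed anchor-drug dose, or a single drug was given alone, by pin tool to lung cancer cell lines in 1536-well plates the day after seeding. Nuclei were stained and counted after 5 days. Relative viability is the nuclei count in treated wells over that in vehicle wells, taken as the median of duplicate plates.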

Dovitinib + Pictilisib = compound: CN1CCN(c2ccc3nc(-c4c(N)c5c(F)cccc5[nH]c4=O)[nH]c3c2)CC1 [Dovitinib] + CS(=O)(=O)N1CCN(Cc2cc3nc(-c4cccc5[nH]ncc45)nc(N4CCOCC4)c3s2)CC1 [Pictilisib] (partner 1 µM)
In short: as §1

Dovitinib + AZD7762 = compound: CN1CCN(c2ccc3nc(-c4c(N)c5c(F)cccc5[nH]c4=O)[nH]c3c2)CC1 [Dovitinib] + NC(=O)Nc1cc(-c2cccc(F)c2)sc1C(=O)N[C@H]1CCCNC1 [AZD7762] (partner 0.2 µM)
In short: as §1

Dovitinib + Vorinostat = compound: CN1CCN(c2ccc3nc(-c4c(N)c5c(F)cccc5[nH]c4=O)[nH]c3c2)CC1 [Dovitinib] + O=C(CCCCCCC(=O)Nc1ccccc1)NO [Vorinostat] (partner 1 µM)
In short: as §1

Cell Line	relative viability (Dovitinib + Foretinib; first compound 0.02 µM)	relative viability (Dovitinib + Foretinib; first compound 0.06325 µM)	relative viability (Dovitinib + Foretinib; first compound 0.2 µM)	relative viability (Dovitinib + Foretinib; first compound 0.6325 µM)	relative viability (Dovitinib + Foretinib; first compound 2 µM)	relative viability (Dovitinib + Pictilisib; first compound 0.02 µM)	relative viability (Dovitinib + Pictilisib; first compound 0.06325 µM)	relative viability (Dovitinib + Pictilisib; first compound 0.6325 µM)	relative viability (Dovitinib + Pictilisib; first compound 2 µM)	relative viability (Dovitinib + AZD7762; first compound 0.02 µM)	relative viability (Dovitinib + AZD7762; first compound 0.06325 µM)	relative viability (Dovitinib + AZD7762; first compound 0.2 µM)	relative viability (Dovitinib + AZD7762; first compound 0.6325 µM)	relative viability (Dovitinib + AZD7762; first compound 2 µM)	relative viability (Dovitinib + Vorinostat; first compound 0.02 µM)	relative viability (Dovitinib + Vorinostat; first compound 0.06325 µM)	relative viability (Dovitinib + Vorinostat; first compound 0.2 µM)	relative viability (Dovitinib + Vorinostat; first compound 0.6325 µM)	relative viability (Dovitinib + Vorinostat; first compound 2 µM)	relative viability (Dovitinib + Pictilisib; first compound 0.2 µM)
201T	0.946	1.01	1.07	1.09	1.06	0.725	0.692	0.702	0.658	0.615	0.814	0.598	0.606	0.562	0.862	0.957	0.908	0.947	0.949	
NCI-H838	1.05	1.02	1.04	0.937	0.961	0.458	0.431	0.466	0.503	0.864	0.979	0.912	0.986	0.96	0.711	0.742	0.706	0.716	0.677	0.499
PC-14	0.976	0.91	0.945	0.945	0.914	0.632	0.72	0.691	0.543	0.309	0.343	0.385	0.351	0.357	0.771	0.938	0.778	0.694	0.757	0.685
LK-2	1.39	1.21	1.4	0.946	1.04	0.525	0.546	0.516	0.57	0.402	0.549	0.308	0.408	0.274	0.262	0.403	0.373	0.373	0.364	0.475
NCI-H1944	0.833	0.906	0.864	0.903	0.86	0.325	0.332	0.33	0.36	0.564	0.788	0.531	0.523	0.475	0.502	0.702	0.646	0.583	0.64	0.335
HCC-78	0.632	0.528	0.535	0.599	0.623	0.206		0.272	0.213	0.71	0.481	0.674	0.699	0.489	0.413	0.415	0.39	0.533	0.431	0.24
NCI-H2405	1.02	0.977	1.05	1.04	1.11	0.431	0.372	0.456	0.408	0.693	0.781	0.736	0.696	0.78	0.99	0.961	1.07	1.06	1.17	0.458
EMC-BAC-2	1	0.982	0.991	0.948	0.599	0.515	0.516	0.512	0.56	1.21	1.06	1.1	1.08	1.16	0.512	0.449	0.422	0.522	0.517	0.497
NCI-H596	0.84	0.614	0.848	0.961	0.874	0.372	0.394	0.387	0.428	1.17	1.09	1	1.03	1.1	0.746	0.606	0.569	0.517	0.694	0.376
LCLC-97TM1	0.986	0.974	1.01	0.922	1.01	0.361	0.135	0.205	0.207	0.247	0.239	0.298	0.395	0.315	0.719	0.612	0.734	0.688	0.751	0.215
H3255	0.877	0.864	0.904	0.982	0.966	0.539	0.514	0.516	0.514	0.966	0.907	1	0.89	0.809	0.684	0.886	0.862	0.778	0.711	0.498
LXF-289	0.99	1.01	0.882	1.02	0.953	0.716	0.801	0.862	0.783	1.07	1.06	1.07	1.13	1.05	0.781	0.836	0.807	0.847	0.746	0.842
LC-2-ad	0.989	0.946	1.03	0.911	1.05	0.535	0.463	0.439	0.36	0.842	0.835	0.819	0.883	0.88	0.674	0.735	0.712	0.758	0.804	0.446
A-427	1.17	0.996	1.02	1.07	0.956	0.724	0.625	0.585	0.774	0.767	0.733	0.674	0.665	0.697	0.83	0.845	0.895	0.941	0.991	0.573
NCI-H322M	0.95	0.898	0.941	0.923	0.869	0.501	0.446	0.542	0.674	0.555	0.738	0.725	0.541	0.398	0.768	0.831	0.807	0.926	0.84	0.464
HCC-366	0.958	0.901	0.947	0.925	0.883	0.172	0.123	0.137	0.186	0.155	0.301	0.297	0.239	0.357	0.325	0.353	0.338	0.429	0.385	0.159
